Measurements taken from patent US20110142866A1, “PEPTIDE ANALOGUES AND CONJUGATES THEREOF” (Eldrug S.A., priority 2007, published 2011).
Entries after “also recorded” stand apart in the source; their conditions may differ.

Tests used:
Assay type in all cases: in vivo, SJL/J mice
[1] = test system: IL-4 secretion by T cells; experiment: IL-4 ELISpot of spleen cells from immunized mice; design: key to IL-4: −: negative; +/−: very weak; +: weak; ++: moderate; +++: strong; conditions: for IL-4 responses: peptide conjugated to reduced mannan, two injections
Description: (§1) Female 6-8 week old SJL/J mice used in all experiments, were purchased from Walter and Eliza Hall Institute (VIC Australia) and housed at the Biological Research Laboratory at Burnet Institute at Austin, Heidelberg, Australia. SJL/J mice were immunized twice on days 0, 14 intradermally (base of tail) with 50 μg MBP83-99 peptide analogue-KLH-reduced mannan.
(§2) ELISpot analyses specific T cell responses to antigens by detecting the secretion of specific cytokines. Spleen cells from immunized SJL/J mice were isolated 14 days after immunization and assessed by ELISpot for IFN-γ, IL-4 or IL-10 secretion by T cells. IFN-γ ELISpot assay was performed on MultiScreen-IP Filter Plate (MAIP S4510) with hydrophobic PVDF filters (Millipore, UK) while IL-4 and IL-10 ELISpot was performed on MultiScreen-HA Filter Plate (MAHA S4510) with mixed cellulose esters filters (Millipore, UK). MAIP S4510 plates were pre-wet with 50 μl of 70% ethanol, washed 5 times with 200 μl sterile PBS and coated with 70 μl of 5 μg/ml anti-IFN-γ capture antibody, AN18 (Mabtech, Australia) in PBS and left to incubate at 4° C. O/N. While 70 μl of 5 μg/ml anti-IL-4 and anti-IL-10 capture antibody (Mabtech, Australia) was added directly to MAHA S4510 plates and incubated at 4° C. O/N without 70% ethanol treatment. Following 5 washes with PBS, plates were blocked by adding 200 μl of culture media (supplemented with 2.5% FCS) and incubated for 2 hours at 37° C. The blocking media was discarded and 10 μg/ml recall peptides (MBP83-99 peptide analogues not conjugated to KLH-reduced mannan) were added into each defined well. Con A (1.0 μg/ml; IL-4 and IFN-γ) or LPS (1.0 μg/ml; IL-10) were used as an internal positive controls and no peptide was used as negative control. Triplicate wells were set up for each condition. 5×10^5 spleen cells in 100 μl culture media were seeded into each well and incubated for 18 hours for IFN-γ, 24 hours for IL-4 and 48 hours for IL-10 at 37° C. Plates were washed 5 times PBS/0.05% Tween 20 and 5 times PBS and incubated for 2 hours at RT with anti-murine IFN-γ, IL-4 or IL-10 monoclonal antibody-biotin. Plates were washed and streptavidin-ALP was added at 1.0 μg/ml and incubated for 2.0 hours at RT. Spots of activity were detected using a colorimetric AP kit (Biorad, Hercules, Calif. USA) and counted using an AID ELISpot plate reader (Autoimmun Diagnostika GmbH, Germany). Data are presented as mean spot forming units (sfu) per 0.5×10^6 cells +/−standard error of the mean (SEM).
MBP87-99, [R^91, A^96]MBP87-99 or [A^91, A^96]MBP87-99 peptides were dissolved in PBS and emulsified in an equal volume of complete Freund's adjuvant (CFA) which contained 1.0 mg/ml of heat killed Mycobacterium tuberculosis H37RA (Sigma, Victoria, Australia). SJL/J mice were given one subcutaneous injection containing 50 μg peptide into the base of tail.
SJL/J mice were immunized twice on days 0 and 14 intradermally (base of tail) with 50 μg MBP87-99-KLH-reduced mannan, [R^91, A^96]MBP87-99-KLH-reduced mannan or [A^91, A^96]MBP87-99-KLH-reduced mannan conjugates.
ELISpot detects specific T cell responses to antigens by measuring the secretion of specific cytokines from individual cells. Spleen cells from immunized SJL/J mice were isolated 28 days after CFA immunization or 14 days after the last immunization with reduced mannan-peptides and assessed by ELISpot for IFN-γ and IL-4 secretion by T cells. IFN-γ ELISpot assay was performed on MultiScreen-IP Filter Plate (MAIP S4510) with hydrophobic PVDF filters (Millipore, UK), while IL-4 ELISpot assays were performed on MultiScreen-HA Filter Plate (MAHA S4510) with mixed cellulose esters filters (Millipore, UK). MAIP S4510 plates were pre-weted with 50 μl of 70% ethanol, washed 5 times with 200 μl of sterile phosphate-buffered saline (PBS) and coated with 70 μl of 5 μg/ml anti-IFN-γ capture antibody, AN18 (Mabtech, Australia) in PBS and incubated O/N at 4° C. […]

spleen cells = experiment: T cell proliferation assay ([3H]-thymidine uptake); design: key to Proliferation / Proliferation cross reaction: −: negative; +/−: very weak; +: weak; ++: moderate; +++: strong; conditions: for Proliferation cross reaction: Table 3, complete Freund's adjuvant; for proliferation of MBP83-99 specific T cells to recall analogue (in words): mice immunized with agonist MBP83-99 in CFA; for Proliferation: Table 2, peptide analogues conjugated to reduced mannan-KLH
Description: Spleen cells from immunized SJL/J mice were isolated 14 days after immunization and assessed by T cell proliferation assay. 1×10^5 spleen cells in 100 μl culture media were seeded into 96 U-bottom plates and incubated for 1-6 days at 37° C. in the presence of recall peptide (10 μg/ml), ConA (positive control) or no peptide (negative control). Proliferation was assessed by adding 1 μCi of [^3H]-thymidine per well to one plate per time point (days 1-6). Cells were incubated for a further 6 h before harvesting onto glass fiber filters. [^3H] uptake was measured using a β-scintillation counter (Top Count Gamma Counter, Packard, USA).
Proliferation assays were used to detect the level of antigen specific T cells by measuring the [3H]thymidine uptake of T cells proliferating in the presence of peptides on days 1-6. Spleen cells from mice immunized with linear agonist MBP83-99 peptide were isolated 28 days after immunization and assessed by T cell proliferation assay. T cells proliferated to MBP83-99 peptide, reaching a peak by day 5 of up to 25 000 cpm (FIG. 9D). In addition, the MBP83-99 specific T cells cross-reacted with linear [A^91]MBP83-99 and mutant cyclo(83-99)[A^91]MBP83-99 peptide analogues (FIG. 9D). The cyclo(83-99)[A^91]MBP83-99 peptide proliferated similarly to linear [A^91]MBP83-99 peptide, reaching a peak on day 5 (FIG. 9D). ConA (internal control) yielded proliferation of more than 75 000 cpm peaked on day 2 and was excluded from the figures, and no peptide (cells alone) was used as background negative control.

[2] = test system: IL-10 secretion by T cells; experiment: IL-10 ELISpot of spleen cells from immunized mice; design: key to IL-10: −: negative; +/−: very weak; +: weak; ++: moderate; +++: strong; conditions: for IL-10: Table 2, peptide analogues conjugated to reduced mannan-KLH; for IL-10 production by T cells (in words): peptide conjugated to reduced mannan, two injections
Description: as §1, §2

[3] = 50 μg peptide conjugated to reduced mannan, two intradermal injections, spleen cells 14 days post-immunization
[4] = 50 μg peptide emulsified in CFA, one injection, spleen cells 28 days
[5] = Table 3, peptide analogues emulsified in complete Freund's adjuvant
[6] = Table 2, peptide analogues conjugated to reduced mannan-KLH

Q: Which results are given for `CC[C@H](C)[C@@H]1NC(=O)[C@H](CC(N)=O)NC(=O)[C@H](CCCCN)NC(=O)[C@H](Cc2ccccc2)NC(=O)[C@H](Cc2ccccc2)NC(=O)[C@H](Cc2c[nH]cn2)NC(=O)[C@H](C(C)C)NC(=O)[C@H](C(C)C)NC(=O)[C@@H]2CCCN2C(=O)[C@H](CC(N)=O)NC(=O)[C@H](CCC(=O)O)NC(=O)[C@@H]2CCCN2C(=O)[C@H]([C@@H](C)O)NC(=O)[C@H](CCCNC(=N)N)NC(=O)[C@@H]2CCCN2C(=O)[C@H]([C@@H](C)O)NC(=O)[C@H](C(C)C)NC1=O` [cyclo(83-99)MBP83-99, cyclo(83-99)E N P V V H F F K N I V T P R T P]?
A: IL-4 secreting T cells (in words) [1, 3]: did not stimulate; also recorded: weak or no; IL-4 secreting T cells (in words) [1, 4]: induced IL-4; IL-4 [1, 5]: −

Q: What does the source list for “E N P V V H F F A N I V T P R T P (ENPVVHFFANIVTPRTP) [[A^91]MBP83-99]”?
A: Proliferation cross reaction (spleen cells): ++; proliferation of MBP83-99 specific T cells to recall analogue (in words) (spleen cells): cross-reacted; IL-4 secreting T cells (in words) [1, 3]: high levels; IL-4 secreting T cells (in words) [1, 4]: not able to generate IL-4; IL-4 [1, 6]: +++; IL-4 [1, 5]: −; IL-4 responses [1]: up to 600 SFU/0.5 million cells

Q: How did the Proliferation cross reaction (spleen cells) turn out when “E N P V V H F F E N I V T P R T P (ENPVVHFFENIVTPRTP) [[E^91]MBP83-99]” was run?
A: ++

Q: What about the “IL-4 secreting T cells (in words)” value [1, 3] of the same compound?
A: high levels

Q: And the IL-4 [1, 6]?
A: +++

Q: And the IL-4 [1, 5]?
A: −

Q: What does the source list for “E N P V V H F F F N I V T P R T P (ENPVVHFFFNIVTPRTP) [[F^91]MBP83-99]”?
A: Proliferation (spleen cells): +++; Proliferation cross reaction (spleen cells): ++; T cell proliferation to recall peptide (in words) (spleen cells; immunization with reduced mannan-KLH-peptide): strong; IL-4 secreting T cells (in words) [1, 3]: high levels; also recorded: induced; IL-4 [1, 6]: +++; IL-4 [1, 5]: −; IL-10 [2]: ++; IL-10 production by T cells (in words) [2]: moderate levels; also recorded: induced

Q: Which results are given for “E N P V V H F F K N I V T P R T P (ENPVVHFFKNIVTPRTP) [MBP83-99, reference compound]”?
A: T cell proliferation, peak (spleen cells; mice immunized with linear MBP83-99 (CFA), spleen cells 28 days, recall peptide, peak by day 5): up to 25 000 cpm; IL-4 secreting T cells (in words) [1, 3]: did not stimulate; also recorded: weak or no; also recorded: low levels; IL-4 secreting T cells (in words) [1, 4]: did not induce IL-4; IL-4 [1, 6]: −; IL-4 [1, 5]: −

Q: What does the source list for “E N P V V H F F R N I V T A R T P (ENPVVHFFRNIVTARTP) [[R^91, A^96]MBP83-99]”?
A: Proliferation cross reaction (spleen cells): +/−; proliferation of MBP83-99 specific T cells to recall analogue (in words) (spleen cells): weakly proliferated; IL-4 secreting T cells (in words) [1, 3]: high levels; IL-4 [1, 6]: +++; IL-4 [1, 5]: ++

Q: “E N P V V H F F Y N I V T P R T P (ENPVVHFFYNIVTPRTP) [[Y^91]MBP83-99]” was tested. Which Proliferation (spleen cells) did it give?
A: +/−

Q: And the Proliferation cross reaction (spleen cells)?
A: +/−

Q: What about the “proliferation of MBP83-99 specific T cells to recall analogue (in words)” value (spleen cells) of the same compound?
A: weakly proliferated

Q: And the “IL-4 secreting T cells (in words)” value [1, 3]?
A: high levels

Q: And the IL-4 [1, 6]?
A: +++

Q: What about the IL-4 [1, 5] of the same compound?
A: −

Q: What about the IL-10 [2] of the same compound?
A: ++

Q: And the “IL-10 production by T cells (in words)” value [2]?
A: moderate levels

Q: How did the Proliferation cross reaction (spleen cells) turn out when “cyclo(83-99)E N P V V H F F A N I V T P R T P (ENPVVHFFANIVTPRTP; cyclised or stapled) [cyclo(83-99)[A^91]MBP83-99]” was run?
A: ++

Q: And the “proliferation of MBP83-99 specific T cells to recall analogue (in words)” value (spleen cells)?
A: cross-reacted

Q: What about the “IL-4 secreting T cells (in words)” value [1, 3] of the same compound?
A: negative

Q: And the “IL-4 secreting T cells (in words)” value [1, 4]?
A: did generate IL-4

Q: What about the IL-4 [1, 6] of the same compound?
A: −

Q: What about the IL-4 [1, 5] of the same compound?
A: −

Q: And the IL-4 responses [1]?
A: up to 70 SFU/0.5 million cells
